The values that follow come from publication PMC4955735 (Anesthesiology, 2016).

Like-named read-outs stand apart in the source and are kept apart here.

For one data set, the system named is S.typhimurium TA 1537. The data set is described as follows: Bacteria reverse mutation assay.
The next data set concerns S.typhimurium TA 98. Description: Bacteria reverse mutation assay.
Data set [1] concerns THP-1, HepG2 and HEK293 cell lines. The data set is described as follows: In vitro cell assays. In kind it is cell-based. To be noted: 0.16 mM to 2.5 mM.
For data set [2] the following is noted: humans; cited from earlier work.
The conditions of data set [3]: rodents; cited from earlier work.
The next data set has as its system rats. Description: Escalating phenylephrine infusion during continuous ketamine infusion. The class given is in vivo, rat. The note with it: phenylephrine 4 to 10 μg/kg/min during steady state shallow ketamine anesthesia; n=3.

As for `Nc1ccc2cc3ccccc3cc2c1` [2-AA, 2-Aminoanthracene, reference compound], the “number of colonies, positive control” value in the data set with S.typhimurium TA 1535 (TA 1535, +S9, 10 μg 2-Aminoanthracene per plate) was 2-AA 91; in the data set with S.typhimurium TA 100 (TA 100, +S9, 10 μg 2-Aminoanthracene per plate), 2-AA 1307; in the data set on S.typhimurium TA 1537 (TA 1537, +S9, 10 μg 2-Aminoanthracene per plate), 2-AA 141; with S.typhimurium TA 98 (TA 98, +S9, 10 μg 2-Aminoanthracene per plate), 2-AA 1101.
With `COc1ccc2nc3cc(Cl)ccc3c(NCCCNCCCl)c2c1` [191-A, ICR 191 Acridine, reference compound], the “number of colonies, positive control” value in the data set on S.typhimurium TA 1537 (TA 1537, −S9, 1 μg ICR 191 Acridine per plate) is reported as 191-A 250.
Take `COc1cccc2c1C(=O)c1c(O)c3c(c(O)c1C2=O)C[C@@](O)(C(C)=O)C[C@@H]3O[C@H]1C[C@H](N)[C@H](O)[C@H](C)O1` [D-myc, Daunomycin, reference compound]: in the data set on S.typhimurium TA 98 (TA 98, −S9, 6 μg Daunomycin per plate), the “number of colonies, positive control” value is “D-myc 505”.
With `CC(O)COC[C@H]1O[C@@H]2O[C@H]3[C@H](O)[C@@H](O)[C@@H](O[C@H]4[C@H](O)[C@@H](O)[C@@H](O[C@H]5[C@H](O)[C@@H](O)[C@@H](O[C@H]6[C@H](O)[C@@H](O)[C@@H](O[C@H]7[C@H](O)[C@@H](O)[C@@H](O[C@H]8[C@H](O)[C@@H](O)[C@@H](O[C@H]1[C@H](O)[C@H]2O)O[C@@H]8COCC(C)O)O[C@@H]7COCC(C)O)O[C@@H]6COCC(C)O)O[C@@H]5COCC(C)O)O[C@@H]4COCC(C)O)O[C@@H]3COCC(C)O` (stereo partly drawn) [HP-β-CD, hydroxypropyl-β-cyclodextrin], the “toxicity in the same cell lines compared with calabadion 2” value in data set [1] is given as “very comparable”.
Regarding `[N-]=[N+]=[N-].[Na+]` [SA, Sodium Azide, reference compound], the “number of colonies, positive control” value is listed as “SA 446” with S.typhimurium TA 1535 (TA 1535, −S9, 1.5 μg Sodium Azide per plate) and “SA 282” in the data set with S.typhimurium TA 100 (TA 100, −S9, 1.5 μg Sodium Azide per plate).
Turning to `CC[C@H]1OC(=O)[C@H](C)[C@@H](O[C@H]2C[C@@](C)(OC)[C@@H](O)[C@H](C)O2)[C@H](C)[C@@H](O[C@@H]2O[C@H](C)C[C@H](N(C)C)[C@H]2O)[C@](C)(O)C[C@@H](C)C(=O)[C@H](C)[C@@H](O)[C@]1(C)O` [erythromycin], the “toxicity in the same cell lines compared with calabadion 2” value in data set [1] is “very comparable”.
As for `CCOC(=O)c1cncn1[C@H](C)c1ccccc1` [etomidate], in data set [2], the “plasma concentration at awakening” value was 280 ng/mL and the “plasma concentration at maintenance of sedation” value was 300 to 600 ng/mL. Also, the “plasma concentration at awakening” value in data set [3] was 440 ng/mL.
For the compound `CNC1(c2ccccc2Cl)CCCCC1=O` (stereo not drawn) [ketamine], in data set [2], the “plasma concentration at awakening” value was 1000 ng/mL and the “plasma concentration at maintenance of sedation” value was 2000 to 3000 ng/mL. The “plasma concentration at awakening” value in data set [3] is 5000 ng/mL.
For `CNC[C@H](O)c1cccc(O)c1` [phenylephrine], in the data set with rats, the “effect on EEG power” value was “without effects on EEG power” and the “effect on MAP” value is given as “significant MAP increases”.
